In US20210260069A1, “IRE1a INHIBITOR IN COMBINATION WITH CANCER [sequence] AGENT FOR CANCER TREATMENT” (Fosun Orinove PharmaTech, Inc., priority 2018, published 2021):

Tests used:
[1] = biological target: T1, IRE1α (Mus musculus, UniProt Q9EQY0); assay: Liver PD screening assay: XBP-1 splicing analysis of liver after tunicamycin (Example 25); assay type: in vivo, BALB/c mice; conditions: PO, 2 hours after tunicamycin 1 mg/kg ip, liver 2 hours after dosing, FIG. 23, read-out: ED50 (inhibition of XBP-1 splicing in liver)
T1 construct: from tissue; host or cells: liver of BALB/c mice (in vivo)
T1 sequence (Q9EQY0 21-977): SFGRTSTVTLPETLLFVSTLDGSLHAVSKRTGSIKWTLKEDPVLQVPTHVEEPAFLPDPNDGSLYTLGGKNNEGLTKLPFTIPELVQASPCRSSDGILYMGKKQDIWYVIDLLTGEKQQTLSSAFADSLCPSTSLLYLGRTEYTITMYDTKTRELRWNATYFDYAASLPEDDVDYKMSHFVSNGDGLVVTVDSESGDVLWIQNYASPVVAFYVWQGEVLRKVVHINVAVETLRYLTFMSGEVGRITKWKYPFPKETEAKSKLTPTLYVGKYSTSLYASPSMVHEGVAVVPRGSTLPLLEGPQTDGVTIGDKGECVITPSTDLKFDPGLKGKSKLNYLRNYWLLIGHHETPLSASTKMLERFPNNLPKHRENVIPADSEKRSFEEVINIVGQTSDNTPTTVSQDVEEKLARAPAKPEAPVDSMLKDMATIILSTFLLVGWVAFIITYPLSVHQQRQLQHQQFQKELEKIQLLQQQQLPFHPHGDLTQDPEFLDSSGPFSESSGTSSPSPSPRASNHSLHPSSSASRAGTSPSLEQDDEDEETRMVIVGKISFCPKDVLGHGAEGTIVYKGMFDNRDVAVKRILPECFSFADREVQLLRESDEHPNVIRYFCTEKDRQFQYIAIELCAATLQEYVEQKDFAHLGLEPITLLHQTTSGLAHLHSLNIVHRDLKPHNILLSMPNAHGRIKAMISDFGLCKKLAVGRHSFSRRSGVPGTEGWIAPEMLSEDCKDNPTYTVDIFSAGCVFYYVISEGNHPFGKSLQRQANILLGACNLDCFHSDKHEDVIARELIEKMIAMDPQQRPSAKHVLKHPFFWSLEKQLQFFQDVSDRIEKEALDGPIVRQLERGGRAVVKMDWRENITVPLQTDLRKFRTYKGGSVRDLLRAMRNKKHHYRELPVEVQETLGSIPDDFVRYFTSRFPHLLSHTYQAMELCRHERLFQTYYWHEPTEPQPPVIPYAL
Description: Example 25 was related to comparative PD/PK data of Orin 1001 VS compound 4315, as its structure shown below, which is an earlier lead of this series of compounds. Tunicamycin was used herein to activate IRE1, then Orin 1001 (also called 4485) or 4315 were given to inhibit the activating effect. […] Each gel panel represents one mouse liver sample as in the figure.
BALB/c mice were injected intraperitoneally with 100 microliters at an equivalent dose of 1 mg/kg tunicamycin solution. Two hours after tunicamycin injection, mice were dosed with compound of interest either PO or IV. Following 2 hours for PO delivery of compound, mice were euthanized according to IACUC protocols using CO2 from a […] source. A 1 cm^3 fragment of the liver for homogenization and extraction of the RNA were collected for further analysis. Total RNA is harvested from cells or tissue using TRIzol according to the manufacturer's procedures. After ethanol precipitation and resuspension of the RNA, RiboGreen (Invitrogen) is used to quantify the yield and normalize the RNA concentration in the source tube containing isolated RNA. RT-PCR is performed by Oligo(dT) priming, and SuperScript II (Invitrogen) transcription using the Amplitaq Gold Kit (Applied Biosystems) according to the manufacturer's protocols. Primers for human XBP-1 are 5_-[…]-3_ (forward, Seq ID No. 8) and 5_-[…]-3_ (reverse, Seq ID No. 9), and for mouse are 5_-[…]-3_ (forward, Seq ID No. 10) and 5_-[…]-3 (Seq ID No. 11). All DNA oligos were purchased from IDT DNA Technologies. PCR is run on a Bio-Rad PTC-100 96-well thermocycler with heating at 94° C. for 30 s, annealing at 58° C. for 30 s, and polymerizing at 72° C. for 30 s for 35 cycles. Reactions are run on 4% precast NuSieve gels from Cambrex and visualized by ethidium bromide staining and UV excitation.
(§1) All PK experiments are standard tests that performed in either WuXi PharmaTech or Charels River Laboratory. 4315 and 4485 (Orin 1001) were dosed PO as a suspension in 1% microcellulose (Sigma) and 50% Sucrouse (Sigma).

[2] = Oral bioavailability test, rat; conditions: in vivo, 10 mg/kg dose
Description: as §1

[3] = 7-day toxicity study; assay type: in vivo; conditions: cynomolgus monkey
[4] = tested on: RPMI 8226 tumor cells; assay: Intratumoral XBP-1 spliced effect in Velcade treated RPMI xenografts; assay type: in vivo, Nude mice; conditions: Orin 1001 30 mg/kg PO on Day 27 in Velcade treated mice, tumor taken four hours later
Description: The mice were treated again on the 24th day with Velcade®. On Day 27, the mice were treated with Orin 1001 at 30 mg/kg PO, four hours later the mice were sacrificed as in Example 25, and tumor tissues were isolated. In a similar way as described for the liver PD test in Example 25, RNA extraction and RT-PCR analysis gave the results as shown FIG. 13.
BALB/c mice were injected intraperitoneally with 100 microliters at an equivalent dose of 1 mg/kg tunicamycin solution. Two hours after tunicamycin injection, mice were dosed with compound of interest either PO or IV. Following 2 hours for PO delivery of compound, mice were euthanized according to IACUC protocols using CO2 from a […] source. A 1 cm^3 fragment of the liver for homogenization and extraction of the RNA were collected for further analysis. Total RNA is harvested from cells or tissue using TRIzol according to the manufacturer's procedures. After ethanol precipitation and resuspension of the RNA, RiboGreen (Invitrogen) is used to quantify the yield and normalize the RNA concentration in the source tube containing isolated RNA. RT-PCR is performed by Oligo(dT) priming, and SuperScript II (Invitrogen) transcription using the Amplitaq Gold Kit (Applied Biosystems) according to the manufacturer's protocols. […]

[5] = tested on: human breast adenocarcinoma MDA-MB231 tumor cells; assay type: in vivo
Description: Orin 1001 was administered by oral gavage in combination with paclitaxel in a xenograft mouse model using female NCr nu/nu mice (n=10 in each group) injected subcutaneously with human breast adenocarcinoma MDA-MB231 tumor cells. To evaluate the effect of Orin 1001 in combination with paclitaxel, Orin 1001 was administered via oral gavage at 75, 150 or 300 mg/kg/day in combination with paclitaxel at 10 mg/kg iv, weekly (n=10/group) for up to 60 days.

COc1cc2c(C)c(CC(=O)N3CCOCC3)c(=O)oc2c(C=O)c1O [Orin 1001]
ED50 [1]: < 2 mg/kg
bioavailability [2]: 52%
5-fold safety margin [3]: 750 mg/kg/day
NOAEL at 7 day ([3]; in vivo, read-out: No Observable Adverse Effect Level (NOAEL)): 150 mg/kg/day
inhibition of activated IRE1 (intratumoral XBP1s) [4]: can inhibit the activity of the activated IRE1
clinical signs of toxicity ([5]; 75, 150 or 300 mg/kg/day oral gavage with paclitaxel 10 mg/kg iv weekly, up to 60 days): no clinical signs of toxicity
tolerability of extended oral dosing ([5]; up to 60 consecutive days): well tolerated
